According to patent US10125139B2, “Pesticidally active polycyclic derivatives with sulfur substituted five-membered ring heterocycles” (Syngenta Participations AG, priority 2015, dated 2018):

Tests used:
Format in all cases: in vivo
[1] = tested on: Myzus persicae (Green Peach Aphid); experiment: Example B5: Myzus persicae feeding/contact activity, sunflower leaf discs; conditions: foliar, 144 h, application rate of 200 ppm, 6 days after infestation
Protocol: Example B5: Myzus persicae (Green Peach Aphid): Feeding/Contact Activity
Sunflower leaf discs were placed onto agar in a 24-well microtiter plate and sprayed with aqueous test solutions prepared from 10,000 ppm DMSO stock solutions. After drying, the leaf discs were infested with an aphid population of mixed ages. The samples were assessed for mortality 6 days after infestation.

[2] = tested on: Euschistus heros (Neotropical Brown Stink Bug); experiment: Example B3: Euschistus heros, sprayed soybean leaves, N2 nymphs; conditions: 120 h, application rate of 200 ppm, 5 days after infestation, read-out: effect in at least one of the two categories (mortality or growth inhibition)
Protocol: Example B3: Euschistus heros (Neotropical Brown Stink Bug)
Soybean leaves on agar in 24-well microtiter plates were sprayed with aqueous test solutions prepared from 10,000 ppm DMSO stock solutions. After drying the leaves were infested with N2 nymphs. The samples were assessed for mortality and growth inhibition in comparison to untreated samples 5 days after infestation. The following compounds gave an effect of at least 80% in at least one of the two categories (mortality or growth inhibition) at an application rate of 200 ppm: […]

[3] = tested on: Spodoptera littoralis (Egyptian Cotton Leaf Worm); experiment: Example B9: Spodoptera littoralis, cotton leaf discs, L1 larvae; conditions: for percent control (mortality, anti-feedant effect or growth inhibition) at 200 ppm: Spodoptera littoralis, foliar, 72 h, application rate of 200 ppm, 3 days after infestation, L1 larvae
Protocol: Example B9: Spodoptera littoralis (Egyptian Cotton Leaf Worm)
Cotton leaf discs were placed onto agar in 24-well microtiter plates and sprayed with aqueous test solutions prepared from 10,000 ppm DMSO stock solutions. After drying the leaf discs were infested with five L1 larvae. The samples were assessed for mortality, anti-feeding effect, and growth inhibition in comparison to untreated samples 3 days after infestation. Control of Spodoptera littoralis by a test sample is given when at least one of the categories mortality, anti-feedant effect, and growth inhibition is higher than the untreated sample.
(§1) Insecticidal action against Diabrotica balteata (Corn root worm), Plutella xylostella (Diamond black moth), and Spodoptera littoralis (Egyptian cotton leaf worm). The tests were carried out as described in biological examples B2, B8 and B9, respectively, with the larval feeding/contact activity (mortality only) being reported as Breakpoint (BP80) values in parts per million (i.e. the lowest concentration which gives 80% larval mortality).

[4] = tested on: Diabrotica balteata (Corn Root Worm); experiment: Example B2: Diabrotica balteata, sprayed maize sprouts, L2 larvae; conditions: for percent effect (mortality or growth inhibition) at 200 ppm: Diabrotica balteata, 96 h, application rate of 200 ppm, 4 days after infestation, L2 larvae, read-out: effect in at least one of the two categories (mortality or growth inhibition)
Protocol: Example B2: Diabrotica balteata (Corn Root Worm)
Maize sprouts placed onto an agar layer in 24-well microtiter plates were treated with aqueous test solutions prepared from 10,000 ppm DMSO stock solutions by spraying. After drying, the plates were infested with L2 larvae (6 to 10 per well). The samples were assessed for mortality and growth inhibition in comparison to untreated samples 4 days after infestation. The following compounds gave an effect of at least 80% in at least one of the two categories (mortality or growth inhibition) at an application rate of 200 ppm:
as §1

[5] = tested on: Plutella xylostella (Diamond Back Moth); experiment: Example B8: Plutella xylostella, artificial diet, L2 larvae; conditions: for percent effect (mortality or growth inhibition) at 200 ppm: Plutella xylostella, 120 h, application rate of 200 ppm, 5 days after infestation, L2 larvae, read-out: effect in at least one of the two categories (mortality or growth inhibition)
Protocol: Example B8: Plutella xylostella (Diamond Back Moth)
24-well microtiter plates with artificial diet were treated with aqueous test solutions prepared from 10,000 ppm DMSO stock solutions by pipetting. After drying, the plates were infested with L2 larvae (10 to 15 per well). The samples were assessed for mortality and growth inhibition in comparison to untreated samples 5 days after infestation. The following compounds gave an effect of at least 80% in at least one of the two categories (mortality or growth inhibition) at an application rate of 200 ppm:
as §1

Row | SMILES | mortality at 200 ppm [1] [%] | percent effect (mortality or growth inhibition) at 200 ppm [2] [%] | percent control (mortality, anti-feedant effect or growth inhibition) at 200 ppm [3] [%] | percent effect (mortality or growth inhibition) at 200 ppm [4] [%] | percent effect (mortality or growth inhibition) at 200 ppm [5] [%] | BP80 (Breakpoint, lowest concentration which gives 80% larval mortality) Spodoptera littoralis ([3]; larval feeding/contact activity, mortality only, test as in B9) [ppm] | BP80 (Breakpoint, lowest concentration which gives 80% larval mortality) Diabrotica balteata ([4]; larval feeding/contact activity, mortality only, test as in B2) [ppm] | BP80 (Breakpoint, lowest concentration which gives 80% larval mortality) Plutella xylostella ([5]; larval feeding/contact activity, mortality only, test as in B8) [ppm]
1 | CCSc1nc(Br)sc1-c1nc2cc(C(F)(F)F)ncc2n1C [Example I-5, 2-bromo-4-ethylsulfanyl-5-[3-methyl-6-(trifluoromethyl)imidazo[4,5-c]pyridin-2-yl]thiazole] | ≥ 80 | – | – | – | – | – | – | –
2 | CCS(=O)(=O)c1cc(I)sc1-c1nc2cc(SC(F)(F)F)ncc2n1C [Example I-8, 2-(3-ethylsulfonyl-5-iodo-2-thienyl)-3-methyl-6-(trifluoromethylsulfanyl)imidazo[4,5-c]pyridine] | ≥ 80 | ≥ 80 | ≥ 80 | ≥ 80 | ≥ 80 | – | – | –
3 | CCS(=O)(=O)c1sc(Br)nc1-c1nc2cc(C(F)(F)F)ncc2n1C [Example I-9, 2-bromo-5-ethylsulfonyl-4-[3-methyl-6-(trifluoromethyl)imidazo[4,5-c]pyridin-2-yl]thiazole] | – | – | – | ≥ 80 | – | – | – | –
4 | CCSc1sc(Br)nc1-c1nc2cc(SC(F)(F)F)ncc2n1C [Example I-10] | – | – | – | – | ≥ 80 | – | – | –
5 | CCS(=O)(=O)c1nc(Br)sc1-c1nc2cc(SC(F)(F)F)ncc2n1C [Example I-11] | – | – | – | ≥ 80 | – | – | – | –
6 | CCS(=O)(=O)c1cc(-n2ccc(C(F)(F)F)n2)sc1-c1nc2cc(C(F)(F)F)ncc2n1C [Example P-2, 2-[3-ethylsulfonyl-5-[3-(trifluoromethyl)pyrazol-1-yl]-2-thienyl]-3-methyl-6-(trifluoromethyl)imidazo[4,5-c]pyridine] | ≥ 80 | ≥ 80 | ≥ 80 | ≥ 80 | ≥ 80 | – | – | –
7 | CCSc1cc(-n2ccc(C(F)(F)F)n2)sc1-c1nc2cc(C(F)(F)F)ncc2n1C [Example P-3, 2-[3-ethylsulfanyl-5-[3-(trifluoromethyl)pyrazol-1-yl]-2-thienyl]-3-methyl-6-(trifluoromethyl)imidazo[4,5-c]pyridine] | – | – | – | ≥ 80 | ≥ 80 | – | – | –
8 | CCSc1c(-c2nc3cc(C(F)(F)F)ncc3n2C)sc(-c2ccc(Cl)cc2)c1Cl [Example P-7, 2-[4-chloro-5-(4-chlorophenyl)-3-ethylsulfanyl-2-thienyl]-3-methyl-6-(trifluoromethyl)imidazo[4,5-c]pyridine] | – | ≥ 80 | ≥ 80 | ≥ 80 | ≥ 80 | – | – | –
9 | CCS(=O)(=O)c1c(-c2nc3cc(C(F)(F)F)ncc3n2C)sc(-c2ccc(Cl)cc2)c1Cl [Example P-8, 2-[4-chloro-5-(4-chlorophenyl)-3-ethylsulfonyl-2-thienyl]-3-methyl-6-(trifluoromethyl)imidazo[4,5-c]pyridine] | – | – | ≥ 80 | ≥ 80 | ≥ 80 | – | – | –
10 | CCS(=O)(=O)c1cc(-n2ccc(C(F)(F)F)n2)sc1-c1nc2cc(C(F)(F)F)nnc2n1C [Example P-12, 6-[3-ethylsulfonyl-5-[3-(trifluoromethyl)pyrazol-1-yl]-2-thienyl]-7-methyl-3-(trifluoromethyl)imidazo[4,5-c]pyridazine] | ≥ 80 | ≥ 80 | ≥ 80 | ≥ 80 | ≥ 80 | – | – | –
11 | CCS(=O)(=O)c1cc(-c2ncccn2)sc1-c1nc2cc(SC(F)(F)F)ncc2n1C [Example P-16, 2-(3-ethylsulfonyl-5-pyrimidin-2-yl-2-thienyl)-3-methyl-6-(trifluoromethylsulfanyl)imidazo[4,5-c]pyridine] | – | ≥ 80 | ≥ 80 | ≥ 80 | ≥ 80 | – | – | –
12 | CCS(=O)(=O)c1sc(-c2ccc(Cl)cc2)nc1-c1nc2cc(C(F)(F)F)ncc2n1C [Example P-19, 2-(4-chlorophenyl)-5-ethylsulfonyl-4-[3-methyl-6-(trifluoromethyl)imidazo[4,5-c]pyridin-2-yl]thiazole] | – | – | ≥ 80 | ≥ 80 | – | – | – | –
13 | CCS(=O)(=O)c1sc(-n2ccc(C(F)(F)F)n2)nc1-c1nc2cc(C(F)(F)F)ncc2n1C [Example P-20, 5-ethylsulfonyl-4-[3-methyl-6-(trifluoromethyl)imidazo[4,5-c]pyridin-2-yl]-2-[3-(trifluoromethyl)pyrazol-1-yl]thiazole] | – | ≥ 80 | ≥ 80 | ≥ 80 | ≥ 80 | – | – | –
14 | CCSc1sc(-n2ccc(C(F)(F)F)n2)nc1-c1nc2cc(C(F)(F)F)ncc2n1C [Example P-21, 5-ethylsulfanyl-4-[3-methyl-6-(trifluoromethyl)imidazo[4,5-c]pyridin-2-yl]-2-[3-(trifluoromethyl)pyrazol-1-yl]thiazole] | – | – | – | ≥ 80 | – | – | – | –
15 | CCS(=O)(=O)c1sc(C2CC2)nc1-c1nc2cc(C(F)(F)F)ncc2n1C [Example P-22, 2-cyclopropyl-5-ethylsulfonyl-4-[3-methyl-6-(trifluoromethyl)imidazo[4,5-c]pyridin-2-yl]thiazole] | ≥ 80 | ≥ 80 | ≥ 80 | ≥ 80 | ≥ 80 | – | – | –
16 | CCS(=O)(=O)c1sc(-c2ncccn2)nc1-c1nc2cc(C(F)(F)F)ncc2n1C [Example P-23, 5-ethylsulfonyl-4-[3-methyl-6-(trifluoromethyl)imidazo[4,5-c]pyridin-2-yl]-2-pyrimidin-2-yl-thiazole] | – | – | ≥ 80 | ≥ 80 | ≥ 80 | – | – | –
17 | CCS(=O)(=O)c1sc(-c2ccc(Cl)cc2)nc1-c1nc2cc(SC(F)(F)F)ncc2n1C [Example P-24] | – | – | ≥ 80 | – | ≥ 80 | – | – | –
18 | CCS(=O)(=O)c1sc(-c2cc(F)cc(F)c2)nc1-c1nc2cc(SC(F)(F)F)ncc2n1C [Example P-26] | – | – | ≥ 80 | ≥ 80 | ≥ 80 | – | – | –
19 | CCS(=O)(=O)c1cc(C(F)(F)F)sc1-c1nc2cc(C(F)(F)F)ncc2n1C [Example V14.01, reference compound] | – | – | – | – | – | 50 | 50 | 50
